The values that follow come from BindingDB's records for doi:10.3109/14756366.2010.486793 (University of Zimbabwe, 2010).

The IC50 is the concentration needed to halve the response being measured. Low readings indicate inhibition by little substance, high ones a need for much substance.

The target of the test is glutathione S-transferase (Plasmodium falciparum). The test is described as follows: A range of natural products were screened for inhibition of PfGST by GST assay with CDNB as a substrate, using a 96-well SpectraMax 340 microplate spectrophotometer equipped with a kinetics mode (Molecular Devices, California). The final concentration of CDNB was 0.5 mM and of GSH was 1mM. Ethacrynic acid (ETA) and haemin were used as positive controls. The incub.
The molecule `C=C1C(=O)OC2/C=C(\COC(C)=O)CC/C=C(\CO)CC(OC(C)=O)[C@@H]12` (stereo partly drawn) [JB42C] gave an IC50 of 8.5 µM.
As to `COC(=O)[C@@H]1[C@@H]2C[C@H]3N(C)CC[C@@]34c3ccccc3N(C(C)=O)[C@H]4[C@@H]2CO[C@@H]1C` [Malagashanine], the IC50 was greater than 100 µM.
Regarding `C=Cc1c(OC=O)cc(O)c2c1OC(c1ccc(O)c(O)c1)C(O)C2` (stereo not drawn) [TRAL-1], the IC50 was 12 µM.
